Experimental data as given in US7045532B2 (Millennium Pharmaceuticals, Inc., priority 1999, dated 2006).
Where two headings read alike, the source gives them in different places.

Biological target: T1, ACE-2 (Homo sapiens, UniProt Q9BYF1)
T1 construct: a stop codon inserted after the serine immediately preceding the transmembrane domain; made in house; host or cells: CHO K1 cells (transient transfection, purified from conditioned medium)
Test: ACE-2 Competitive Substrate Assay (ACS Assay)
Type: biochemical

[1] = Ki class, compounds tested in 5% DMSO, 12 compound concentrations, Ki=Kiapp/(1+[S]/Km), read-out: Human ACE-2 Activity
[2] = Table 3, very good ACE-2 inhibiting compounds, species not given, read-out: ACE-2 Activity, Ki
[3] = Ki class per key, compounds tested in 5% DMSO, 12 compound concentrations, 25° C., Ki=Kiapp/(1+[S]/Km), read-out: Human ACE-2 Activity

T1 sequence (Q9BYF1 18-740 limits assumed): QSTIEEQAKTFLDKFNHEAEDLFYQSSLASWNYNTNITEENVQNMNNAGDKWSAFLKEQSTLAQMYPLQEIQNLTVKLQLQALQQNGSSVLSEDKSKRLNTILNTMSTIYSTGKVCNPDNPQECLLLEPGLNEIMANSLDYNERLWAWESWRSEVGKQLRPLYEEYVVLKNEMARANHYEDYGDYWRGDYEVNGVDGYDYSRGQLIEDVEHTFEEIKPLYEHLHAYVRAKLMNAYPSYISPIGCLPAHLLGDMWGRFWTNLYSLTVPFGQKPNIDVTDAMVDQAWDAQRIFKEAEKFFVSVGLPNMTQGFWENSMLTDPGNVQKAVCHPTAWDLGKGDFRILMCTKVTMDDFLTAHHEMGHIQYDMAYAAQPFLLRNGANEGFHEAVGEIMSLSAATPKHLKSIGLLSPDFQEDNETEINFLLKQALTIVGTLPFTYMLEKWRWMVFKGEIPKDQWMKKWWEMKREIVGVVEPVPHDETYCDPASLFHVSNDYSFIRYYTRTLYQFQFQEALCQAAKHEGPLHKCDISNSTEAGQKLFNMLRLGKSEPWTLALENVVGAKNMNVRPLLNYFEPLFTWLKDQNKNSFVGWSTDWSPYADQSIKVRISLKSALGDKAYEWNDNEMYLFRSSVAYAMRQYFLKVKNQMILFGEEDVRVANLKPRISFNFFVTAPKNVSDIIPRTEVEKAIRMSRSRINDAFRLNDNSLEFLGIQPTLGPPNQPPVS

| SMILES | Ki [1] [nM] | further results |
| --- | --- | --- |
| COc1cccc(C(=O)NCC[C@H](N[C@@H](CC(C)C)C(=O)O)C(=O)O)c1 [KO, 2-[1-Carboxy-3-(3-methoxy-benzoylamino)-propylamino]-4-methyl-pentanoic acid] | > 500 |  |
| CC(C)C[C@H](N[C@@H](CCNS(=O)(=O)c1ccc(-c2ccc(Cl)cc2)cc1)C(=O)O)C(=O)O [KN, (S,S)-2-[1-Carboxy-3-(4′-chloro-biphenyl-4-sulfonylamino)-propylamino]-4-methyl-pentanoic acid] | > 500 |  |
| CC(C)C[C@H](N[C@@H](C/C=C\c1cc(Cl)cc(Cl)c1)C(=O)O)C(=O)O (stereo in doubt) [PV, 2-(1-Carboxy-3-methyl-butylamino)-5-(3,5-dichloro-phenyl)-pent-4-enoic acid] |  | Ki [3]: < 100 nM |
| Cc1ccc(-c2ccc(C[C@H](N[C@@H](CC(C)C)C(=O)O)C(=O)O)cc2)nc1 [PZ, (S,S)-2-{1-Carboxy-2-[4-(5-methyl-pyridin-2-yl)-phenyl]-ethylamino}-4-methyl-pentanoic acid] |  | Ki [3]: < 100 nM; Ki [2]: < 50 nM |
| CC(C)CC(N[C@@H](Cc1cncn1Cc1ccc([N+](=O)[O-])cc1)C(=O)O)C(=O)O (single isomer, unassigned) [ID, 2-[1-Carboxy-2-[3-(4-nitro-benzyl)-3H-imidazol-4-yl]-ethylamino]-4-methyl-pentanoic acid] | > 500 |  |
| CC(C)CC(N[C@@H](Cc1cncn1CCC1CCCCC1)C(=O)O)C(=O)O (single isomer, unassigned) [JJ, 2-[1-Carboxy-2-[3-(2-cyclohexyl-ethyl)-3H-imidazol-4-yl]-ethylamino]4-methyl-pentanoic acid] | > 500 |  |
| CC(C)CC(N[C@@H](Cc1cncn1Cc1cccc(C(F)(F)F)c1)C(=O)O)C(=O)O (single isomer, unassigned) [JA, 2-[1-Carboxy-2-[3-(3-trifluoromethyl-benzyl)-3H-imidazol-4-yl]-ethylamino]4-methyl-pentanoic acid] | > 500 |  |
| COc1ccccc1C(=O)Nc1ccc(C[C@H](N[C@@H](CC(C)C)C(=O)O)C(=O)O)cc1 [RB, 2-[1-Carboxy-2-[4-(2-methoxy-benzoylamino)-phenyl]-ethylamino]-4-methyl-pentanoic acid] |  | Ki [3]: < 100 nM; Ki [2]: < 50 nM |
| CC(C)CC(N[C@@H](Cc1cncn1Cc1ccc([N+](=O)[O-])cc1)C(=O)O)C(=O)O (single isomer, unassigned) [IC, 2-[1-Carboxy-2-[3-(4-nitro-benzyl)-3H-imidazol-4-yl]-ethylamino]-4-methyl-pentanoic acid] | < 100 | Ki [2]: 50 to 100 nM |
| CC(C)C[C@H](N[C@@H](Cc1cccc(-c2cc(Cl)cc(Cl)c2)c1)C(=O)O)C(=O)O [MI, (S,S)-2-[1-Carboxy-2-(3,′5′-dichloro-biphenyl-3-yl)-ethylamino]-4-methyl-pentanoic acid] | 100 to 500 |  |
| CC(C)C[C@H](N[C@@H](Cc1ccc(OCc2csc3ccc(Cl)cc23)cc1)C(=O)O)C(=O)O [QK, 2-[1-Carboxy-2-[4-(5-chloro-benzo[b]thiophen-3-ylmethoxy)-phenyl]-ethylamino]-4-methyl-pentanoic acid] |  | Ki [3]: < 100 nM; Ki [2]: < 50 nM |
| CC(C)C[C@H](N[C@@H](CC(=O)Nc1nc2ccc(F)cc2s1)C(=O)O)C(=O)O [MQ, 2-[1-Carboxy-2-(6-fluoro-benzothiazol-2-ylcarbamoyl)-ethylamino]-4-methyl-pentanoic acid] | < 100 | Ki [2]: < 50 nM |
| C[C@@H](N[C@@H](CCCN)C(=O)O)C(=O)O [M, 5-Amino-2-(1-carboxy-ethylamino)-pentanoicacid] |  | Ki (Ki class, compounds tested in 5% DMSO, 12 concentrations, read-out: Human ACE-2 Activity): > 500 nM |
| Cc1cc(C[C@H](NC(CC(C)C)C(=O)O)C(=O)O)no1 (stereo in doubt) [IM, 2-[1-Carboxy-2-(5-methyl-isoxazol-3-yl)-ethylamino]-4-methyl-pentanoic acid] | > 500 |  |
| COc1cc(OC)cc(-c2cccc(C[C@H](N[C@@H](CC(C)C)C(=O)O)C(=O)O)c2)c1 [MK, (S,S)-2-[1-Carboxy-2-(3′,5′-dimethoxy-biphenyl-3-yl)-ethylamino]-4-methyl-pentanoic acid] | > 500 |  |
| Cc1ccc(-c2nc(C[C@H](N[C@@H](CC(C)C)C(=O)O)C(=O)O)cs2)cc1 [KK, (S,S)-2-[1-Carboxy-2-(2-p-tolyl-thiazol-4-yl)-ethylamino]-4-methyl-pentanoic acid] | < 100 | Ki [2]: < 50 nM |
| CC(C)C[C@H](N[C@@H](Cc1csc(-c2cc(Cl)cc(Cl)c2)n1)C(=O)O)C(=O)O [LO, (S,S)-2-{1-Carboxy-2-[2-(3,5-dichlorophenyl)-thiazol-4-yl]-ethylamino}-4-methyl-pentanoic acid] | 100 to 500 |  |
| Cc1ccnc(-c2ccc(C[C@H](N[C@@H](CC(C)C)C(=O)O)C(=O)O)cc2)c1 [QA, (S,S)-2-{1-Carboxy-2-[4-(4-methyl-pyridin-2-yl)-phenyl]-ethylamino}-4-methyl-pentanoic acid] |  | Ki [3]: < 100 nM; Ki [2]: 50 to 100 nM |
| CC(C)C[C@H](N[C@@H](CN1CCN(c2cc(F)cc(F)c2)C1=O)C(=O)O)C(=O)O [NC, 2-{1-Carboxy-2-[3-(3,5-difluoro-phenyl)-2-oxo-imidazolidin-1-yl]-ethylamino}-4-methyl-pentanoic acid] | > 500 |  |
| CC(C)C[C@H](N[C@@H](CC(=O)Nc1nc2ccccc2s1)C(=O)O)C(=O)O [KV, 2-[2-(Benzothiazol-2-ylcarbamoyl)-1-carboxy-ethylamino]-4-methyl-pentanoic acid] | < 100 | Ki [2]: < 50 nM |
| CC(C)C[C@H](N[C@@H](Cn1ccn(CCC2CCCCC2)c1=O)C(=O)O)C(=O)O [ME, (S,S)-2-{1-Carboxy-2-[3-(2-cyclohexyl-ethyl)-2-oxo-2,3-dihydro-imidazol-1-yl]-ethylamino}-4-methyl-pentanoic acid] | 100 to 500 |  |
| CCC(CC)Cn1cncc1C[C@H](NC(CC(C)C)C(=O)O)C(=O)O (single isomer, unassigned) [JN, 2-[1-Carboxy-2-[3-(2-ethylbutyl)-3H-imidazol-4-yl]-ethylamino]-4-methyl-pentanoic acid] | > 500 |  |
| CC(C)CC(N[C@@H](Cc1cncn1CC1CCCCC1)C(=O)O)C(=O)O (single isomer, unassigned) [JG, 2-[1-Carboxy-2-(3-cyclohexylmethyl-3H-imidazol-4-yl)-ethylamino]4-methyl-pentanoic acid] | > 500 |  |
| CC(C)C[C@H](N[C@@H](Cc1ccc(OC(C)(C)C)cc1)C(=O)O)C(=O)O [LU, 2-[2-(4-tert-Butoxy-phenyl)-1-carboxy-ethylamino]-4-methyl-pentanoic acid] | > 500 |  |
| C[C@@H](N[C@@H](Cc1cncn1Cc1cc(Cl)cc(Cl)c1)C(=O)O)C(=O)O [PM, 2-(1-Carboxy-ethylamino)-3-[3-(3,5-dichloro-benzyl)-3H-imidazol-4-yl]-propionic acid] |  | Ki [3]: > 500 nM |
| CC(C)C[C@H](N[C@@H](Cc1csc(-c2ccc(F)c(Cl)c2)n1)C(=O)O)C(=O)O [KJ, (S,S)-2-{1-Carboxy-2-[2-(3-chloro-4-fluoro-phenyl)-thiazol-4-yl-]-ethylamino}-4-methyl-pentanoic acid] | < 100 | Ki [2]: 50 to 100 nM |
| CC(C)CC(N[C@@H](Cc1cncn1Cc1ccc(C(C)C)cc1)C(=O)O)C(=O)O (single isomer, unassigned) [HV, 2-[1-Carboxy-2-[3-(4-isopropyl-benzyl)-3H-imidazol-4-yl]-ethylamino)4-methyl-pentanoic acid] | > 500 |  |

Further lines, with some results ahead:

| Ki [1] [nM] | SMILES | further results |
| --- | --- | --- |
| < 100 | CC(C)C[C@H](N[C@@H](Cc1cncn1Cc1cc(Cl)cc(Cl)c1)C(=O)OCc1ccccc1)C(=O)O (single isomer, unassigned) [LC, 2-(1-Benzyloxycarbonyl-2-[3-(3,5-dichloro-benzyl)-3H-imidazol-4-yl]-ethylamino]-4-methyl-pentanoic acid] | Ki [2]: < 50 nM |
| 100 to 500 | Cc1c(Cn2cncc2C[C@H](NC(CC(C)C)C(=O)O)C(=O)O)cccc1-c1ccccc1 (single isomer, unassigned) [IQ, 2-[1-Carboxy-2-[3-(2-methyl-biphenyl-3-ylmethyl)-3H-imidazol-4-yl]-ethylamino]-4-methyl-pentanoic acid] |  |
| 100 to 500 | CC(C)C[C@H](N[C@@H](CCc1ccc(OCc2ccccc2)cc1)C(=O)O)C(=O)O [OQ, (S,S) 2-[3-(4-Benzyloxy-phenyl)-1-carboxy-propylamino]-4-methyl-pentanoic acid] |  |
| > 500 | Cc1ccccc1Cn1cncc1C[C@H](NC(CC(C)C)C(=O)O)C(=O)O (single isomer, unassigned) [HX, 2-[1-Carboxy-2-[3-(2-methyl-benzyl)-3H-imidazol-4-yl]-ethylamino]4-methyl-pentanoic acid] |  |
| 100 to 500 | CC(C)C[C@H](N[C@@H](Cc1ccc(OCCc2ccccc2)cc1)C(=O)O)C(=O)O [LT, 2-[1-Carboxy-2-(4-phenethyloxy-phenyl)-ethylamino]-4-methyl-pentanoic acid] |  |
| 100 to 500 | CCCCc1ccc(Cn2cncc2C[C@H](NC(CC(C)C)C(=O)O)C(=O)O)cc1 (single isomer, unassigned) [HI, 2-[2-[3-(4-Butyl-benzyl)-3H-imidazol-4-yl]-1-carboxy-ethylamino]-4-methyl-pentanoic acid] |  |
| < 100 | CC(C)C[C@H](N[C@@H](Cc1ccc(OCc2ccncc2)cc1)C(=O)O)C(=O)O [LV, 2-[1-Carboxy-2-[4-(pyridin4-ylmethoxy)-phenyl]-ethylamino]-4-methyl-pentanoic acid] | Ki [2]: 50 to 100 nM |
| > 500 | CC(C)C[C@H](N[C@@H](CNS(=O)(=O)c1ccc2ccccc2c1)C(=O)O)C(=O)O [MU, 2-[1-Carboxy-2-(naphthalene-2-sulfonylamino)-ethylamino]-4-methyl-pentanoic acid] |  |
| 100 to 500 | CC(C)C[C@H](N[C@@H](Cc1ccc(-c2ccccc2)o1)C(=O)O)C(=O)O [NR, (S,S)-2-[1-Carboxy-2-(5-phenyl-furan-2-yl)-ethylamino]-4-methyl-pentanoic acid] |  |
| 100 to 500 | CC(C)C[C@H](N[C@@H](Cc1ccc(-c2cccc3ccccc23)o1)C(=O)O)C(=O)O [OK] |  |
